Test results from article PMC12445698 (2025).

Assays:
Experiment in all cases: ITC
Details in all cases: 50 mM KCl, 10 mM MgCl2; 40 mM HEPES pH 7.4
[1] = system: I39C (RNA, riboswitch) GGGUUGUAUAAGCUCGUUAAUUUGGAAUGAGCGUAUCUACCAGGCAACCGUAAAUUGCCCCAGGCUACAAUC
[2] = system: U38G-I39C (RNA, riboswitch) GGGUUGUAUAAGCUCGUUAAUUUGGAAUGAGCGUAUCGACCAGGCAACCGUAAAUUGCCCCAGGCUACAAUC
[3] = system: U38C (RNA, riboswitch) GGGUUGUAUAAGCUCGUUAAUUUGGAAUGAGCGUAUCCACAGGCAACCGUAAAUUGCCCCAGGCUACAAUC

| Kd [1] [µM] | Kd [2] [µM] | Kd [3] [µM] | Structure (SMILES) |
| --- | --- | --- | --- |
| 9.79 | 14.6 | – | O=c1[nH]c(=O)c2[nH]cnc2[nH]1 |
| 0.0017 | – | 1.3 | Nc1nc2[nH]cnc2c(=O)[nH]1 |
